Assay results taken from article PMC8171083, “A nano-predator of pathological MDMX construct by clearable supramolecular gold(I)-thiol-peptide complexes achieves safe and potent anti-tumor activity” (Theranostics, 2021).
Where a SMILES comes first, the peptide text is derived from it. The star is where a group is joined. Cbz = O=C(OCc1ccccc1)*

system: WERI-Rb-1 cells; assay: Cell uptake analysis by flow cytometry (FITC-labelled); assay type: cell-based; settings: pH 6.5; 3 mM Amiloride, 2 μM cytochalasin D

Q: `C=C1[C@@H](C)[C@H]2[C@H](Cc3ccccc3)NC(=O)[C@]23[C@H](OC(C)=O)/C=C/[C@@](C)(O)C(=O)[C@@H](C)C/C=C/[C@H]3[C@@H]1O` [cytochalasin D] was tested. Which “Effect of preincubation on Nano-FITCMG@PSI internalization” value did it give?
A: The value was “suppressed”.

Q: Which “Effect of preincubation on Nano-FITCMG@PSI internalization” value does the source give for `N=C(N)NC(=O)c1nc(Cl)c(N)nc1N` [Amiloride] here?
A: The value was “suppressed”.

target: T1, MDMX (Homo sapiens, UniProt O15151); assay: MDMX degradation by western blot; assay type: cell-based; settings: 200 nM Nano-MP@PSI, 12-hour preincubation of inhibitor
T1 construct: endogenous in cells; host or cells: WERI-Rb-1 (ATCC)
T1 sequence (O15151 1-490): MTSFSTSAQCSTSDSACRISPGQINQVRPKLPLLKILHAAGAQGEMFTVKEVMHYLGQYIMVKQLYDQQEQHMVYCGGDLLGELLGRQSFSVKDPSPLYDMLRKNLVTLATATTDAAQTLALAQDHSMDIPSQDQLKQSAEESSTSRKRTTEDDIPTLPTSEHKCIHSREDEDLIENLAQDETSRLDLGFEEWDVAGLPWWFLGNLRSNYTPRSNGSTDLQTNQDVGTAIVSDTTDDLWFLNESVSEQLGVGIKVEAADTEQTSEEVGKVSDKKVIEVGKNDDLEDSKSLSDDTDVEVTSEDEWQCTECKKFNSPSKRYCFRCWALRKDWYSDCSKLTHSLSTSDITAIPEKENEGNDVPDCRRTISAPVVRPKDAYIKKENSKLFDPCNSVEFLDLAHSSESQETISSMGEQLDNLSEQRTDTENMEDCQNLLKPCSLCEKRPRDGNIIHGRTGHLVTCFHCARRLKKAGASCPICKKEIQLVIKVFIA
Excerpt: The protein fraction of cell lysates was resolved by 10%SDS/PAGE before membrane
transfer. Primary antibodies were from Santa Cruz Biotechnology (p53), Abcam (p73), Proteintech
(MDMX，p21, GAPDH); secondary antibodies conjugated with horseradish peroxidase were from […]

Q: How did the “Effect on MDMX degradation by Nano-MP@PSI” value (shortened to “Effect on MDMX degradation”) turn out when `Cl.N` [NH4Cl] was run?
A: Its value is “neither a chloroquine (a lysosome inhibitor) nor NH4Cl (an autophagy inhibitor) had any effect”.

Q: How did the “Effect on MDMX degradation” value turn out when `CC(C)C[C@@H](C=O)NC(=O)[C@H](CC(C)C)NC(=O)[C@H](CC(C)C)NC(=O)OCc1ccccc1` [MG132] (Cbz-Leu-Leu-Leu-aldehyde) was run?
A: The value was “totally inhibits”.

Q: With `CCN(CC)CCCC(C)Nc1ccnc2cc(Cl)ccc12` (stereo not drawn) [chloroquine] as the molecule, how does the “Effect on MDMX degradation” value read?
A: Its value is “neither a chloroquine (a lysosome inhibitor) nor NH4Cl (an autophagy inhibitor) had any effect”.

Q: With `CCOC(=O)c1ccc(N2NC(=O)/C(=C/c3ccc([N+](=O)[O-])o3)C2=O)cc1` [PYR41] as the molecule, how does the “Effect on MDMX degradation” value read?
A: The value was “totally inhibits”.
